According to PubChem BioAssay AID1508591:

Conditions: rat; liver microsomes; pH 7.4; 15.0 min; 1.0 µM

Row | SMILES | half-life [min]
1 | Cc1ccc(N2CCN(c3cnn(-c4nc5ccccc5s4)c(=O)c3Cl)CC2C)cc1 (stereo not given) | 10.5
2 | Cc1ccc(OCCn2c(CCNC(=O)c3ccc(Cl)cc3)nc3ccccc32)cc1 | 1.8
3 | COc1cc2c(c(OC)c1OC)-c1ccc(OC)c(=O)cc1[C@@H](NC(C)=O)CC2 | > 30
4 | O=S(=O)(Nc1cccc2ccccc12)c1ccc(NCc2cccc(Cl)c2O)cc1 | 4.3
5 | O=C(Cc1ccccc1)Nc1ccc(S(=O)(=O)Nc2nccs2)cc1 | > 30
6 | COc1cccc(C(=O)Nc2nnc(S(=O)(=O)N3CCOCC3)s2)c1 | > 30
7 | C[N+]1([O-])[C@@H]2CC[C@H]1CC(OC(=O)C(CO)c1ccccc1)C2 (stereo not given in full) | > 30
8 | Cc1ccc(S(=O)(=O)Nc2cc(F)ccc2C(=O)Nc2nc(-c3ccccc3)cs2)cc1 | 5.6
9 | O=c1[nH]c(N2CCOCC2)nc2c1CCN(Cc1ccc(Cl)cc1F)CC2 | > 30
10 | CC(C)CCNC(=O)[C@H](CC(C)C)NC(=O)[C@H]1O[C@@H]1C(=O)O | > 30
11 | CN(C(=O)OC(C)(C)C)[C@@H](Cc1ccc(O[S+](=O)([O-])c2cccc3cnccc23)cc1)C(=O)N1CCN(C(=O)OCc2ccccc2)CC1 | 1.74
12 | O=[N+]([O-])c1ccc(CNc2ccc([S+](=O)([O-])Nc3nccs3)cc2)c(O)c1 | 13
13 | COc1ccccc1NC(=O)C1=C(C)Nc2c(C(=O)Nc3ccc(F)cc3)cnn2C1c1ccc(Cl)cc1 (stereo not given) | 3.34
14 | Cn1nnnc1Sc1ncnc2sc(-c3ccccc3)cc12 | 12.3
15 | Cc1ccc(-c2cc(C(=O)Nc3ncco3)c3ccccc3n2)cc1C | 5.7
16 | COc1cnccc1-c1nc(Nc2ccc(F)c(F)c2)c2ccccc2n1 | > 30
17 | Cn1ccc2c(C(=O)NCC3CCC(=O)N3)nc(-c3ccccc3C#N)cc21 (stereo not given) | 21.9
18 | CC(C)c1nc2oc3c(NCCN(C)C)ncnc3c2c2c1COC(C)(C)C2 | > 30
19 | CC[C@@]1(O)C(=O)OCc2c1cc1n(c2=O)Cc2cc3ccccc3nc2-1 | > 30
20 | CC1CCN(C(=O)c2ccc(-c3ccc(N4CCSCC4)nc3)cc2)CC1 | 1.52
21 | O=C(CSc1nc(-c2ccc(F)cc2)[nH]c1-c1ccc(F)cc1)Nc1ccc2c(c1)OCCO2 | 1.19
22 | CCN(CC)CCOc1ccc2c(=O)c3ccc(Cl)cc3n(CCN(CC)CC)c2c1 | 7.9
23 | CCOC(=O)c1c(NC(=O)CN2CCCCC2)sc2c1CCN(C(=O)OCC)C2 | 5.2
24 | Fc1ccc(Nc2nc(-n3ccnc3)nc3ccccc23)cc1F | > 30
25 | O=C(NCCCCc1ccccc1)C1CCN(c2nc(-c3ccc(Br)cc3)cs2)CC1 | 4.1

Row | SMILES | half-life [min]
26 | CCOC(=O)NNc1ccc(N(CC)CC(C)O)nn1 (stereo not given) | > 30
27 | COc1ccc(NC(=O)c2ccc[nH]2)cc1S(=O)(=O)Nc1ccc(Br)cc1 | 7.44
28 | CC(C)(C#N)c1ccc(N2C(=O)OCc3cnc4ccc(-c5cnc6ccccc6c5)cc4c32)cc1 | 2.84
29 | Cc1c(NC2=C(Cl)C(=O)N(c3ccccc3)C2=O)c(=O)n(-c2ccccc2)n1C | 23
30 | COc1ccc(-n2nc(C3CCN(C(=O)Cc4ccc(F)cc4)CC3)[nH]c2=O)cc1 | 7.87
31 | Cc1ccc(-c2cc(C(=O)Nc3ccc(-n4cccn4)cc3)c3ccccc3n2)cc1C | 9.1
32 | O=S(=O)(Nc1cccc2ccncc12)c1ccc(NCc2cccc(Cl)c2O)cc1 | 9.9
33 | Cc1nnn(C)c1-c1cnc2c3ccc(C(C)(C)O)cc3n([C@H](c3ccccc3)C3CCOCC3)c2c1 | > 30
34 | Nc1ncnc2c1c(-c1cnc3[nH]ccc3c1)nn2C1CCCC1 | 3.09
35 | CC(C)(C)c1ccc(OCc2nn3c(-c4ccncc4)nnc3s2)cc1 | 19.6
36 | Cn1c2ccccc2c(=O)c2c(=O)n(-c3ccccc3)c(C3CCCCC3)nc21 | > 30
37 | O=C(O)c1ccc(Nc2nc(-c3cc4ccccc4oc3=O)cs2)cc1O | > 30
38 | Cc1cc(C)nc(NC(=S)N2CCN(c3ccc4nsnc4c3)CC2)c1 | 15.2
39 | O=C(Nc1ccc([S+](=O)([O-])Nc2nccs2)cc1)c1ccn[nH]1 | > 30
40 | O=C1CCCC2=C1C(c1[nH]ncc1Cl)N=C(Nc1nc3c(Cl)cccc3o1)N2 (stereo not given) | 3.4
41 | COCCNCc1ccc(-c2cc3nccc(Oc4ccc(NC(=O)C5(C(=O)Nc6ccc(F)cc6)CC5)cc4F)c3s2)nc1 | 14.8
42 | CC(C)(C)c1ccc(-c2nc(SCCCOc3ccccc3)n3[nH]c(=O)cc3n2)cc1 | > 30
43 | Cc1cccc(CS(=O)(=O)c2ncc(Cl)c(C(=O)Nc3nc4ccc(F)cc4s3)n2)c1 | 1.43
44 | Cc1noc(C)c1C(=O)N1CCC2(CC1)CCN(C(c1ccccc1)c1ccccc1)CC2 | 9.4
45 | NC(=O)C1CCN(c2nc(-c3ccc4ccccc4c3)cs2)CC1 | 2.62
46 | CN(C)c1cccc(-c2ccnc(N3CCC(C(N)=O)CC3)n2)c1 | 1.67
47 | Cc1ccnc(NC(=S)N2CCN(c3cccc(Cl)c3Cl)CC2)c1 | 2.4
48 | N#CC1CCN(c2nc(-c3ccc(Br)cc3)cs2)CC1 | 24.7
49 | Cc1ccc(S(=O)(=O)Nc2cnccc2C(=O)Nc2nc(-c3cnn(C)c3)cs2)cc1 | 13
50 | C=C1C(=O)OC2C1CCC(C)C1(O)C=CC(=O)C21C (stereo not given) | > 30

Further lines, results first:

Row | half-life [min] | SMILES
51 | 10.3 | CCCCn1cnc2cc(NCc3ccc(OCC)cc3)ccc21
52 | 1.21 | Cc1ccc(C)c(SC2=NS(=O)(=O)c3ccccc32)c1
53 | > 30 | O=C(Cc1nc2ccc(Cl)cc2[nH]1)Nc1ccc(S(=O)(=O)Nc2nccs2)cc1
54 | 7.59 | COc1ccc(C2c3c(oc4ccc(C)cc4c3=O)C(=O)N2CCCN2CCOCC2)cc1OC (stereo not given)
55 | 1 | COc1c(C)c2c(c(O)c1C/C=C(\C)CCC(=O)OCCN1CCOCC1)C(=O)OC2
56 | 1.83 | CCCCC(C)/C=C(C)/C=C(\C)C(=O)NC1=CC(O)(/C=C/C=C/C=C/C(=O)NC2=C(O)CCC2=O)C2OC2C1=O (stereo not given)
57 | 9.5 | COC(=O)c1ccc(Nc2nc(-c3ccncc3)nc3ccccc23)cc1OC
58 | 14.4 | O=C(Nc1ccc2oc(-c3cccnc3)nc2c1)c1ccc(-c2ccccc2)o1
59 | 8.06 | O=C(CCCCn1c(=O)[nH]c2ccsc2c1=O)N1CCN(c2cccc(Cl)c2)CC1
60 | 1.65 | COc1ccc(CN2CCc3nc(N4CCN(c5ccc(F)cc5)CC4)ncc3C2)c(OC)c1OC
61 | 19.4 | CC#CC(=O)N1CCC[C@H]1c1nc(-c2ccc(C(=O)Nc3ccccn3)cc2)c2c(N)nccn12
62 | 1.7 | CCOc1ccc(CCN(C)C(=O)c2cc3sccc3n2Cc2ccccc2)cc1OCC
63 | 6 | CCOC(=O)c1nnc(N[S+](=O)([O-])c2ccc(NC(=O)Cc3ccc(Cl)c(Cl)c3)cc2)s1
64 | 24.7 | Cc1noc(/C=C/c2ccccc2F)c1S(=O)(=O)N1CCC(C(=O)Nc2ccc(C#N)cc2)CC1
65 | > 30 | O=C(NCCO)c1cccc(-c2cc(Nc3ccc(OC(F)(F)F)cc3)ncn2)c1
66 | > 30 | CCc1ccc(NC(=O)c2[nH]c(C)c(C(C)=O)c2C)cc1[S+](=O)([O-])Nc1ccccc1C#N
67 | 2.77 | Cc1ccc(-n2nc3c(=O)n(CCCC(=O)NCc4ccc(F)cc4)nc(C)c3c2C)cc1
68 | 1.5 | C=Cc1ccc(C(=O)N2CCCC(CCC(=O)N3CCN(c4ccccn4)CC3)C2)cc1 (stereo not given)
69 | 21 | CCOc1ccc(CNc2ccc3c(c2)ncn3C)cc1
70 | > 30 | Fc1ccc(Nc2nc(-c3ccnc(C(F)(F)F)c3)nc3ccccc23)cc1F
71 | 1.85 | COc1cccc(-c2csc(NC(=O)c3ccncc3NS(=O)(=O)c3ccc(C)cc3)n2)c1
72 | 6.67 | CCCCCOc1ccccc1/C(=C\SC)n1ccnc1
73 | 14 | Cc1cc(-c2nnc3n2CCCCC3)c(C)n1-c1ccncc1
74 | 17.9 | Cc1ccc2cccc(NC(=O)c3ccc(OC(C)C)cc3)c2n1
75 | > 30 | COc1cccc(CNc2ccc(S(=O)(=O)Nc3nccs3)cc2)c1O

Row | half-life [min] | SMILES
76 | > 30 | O=C(Nc1ccccc1C(=O)Nc1cccc(C(F)(F)F)c1)c1ccccc1
77 | 12.5 | COc1cc(NC(=O)c2cc(-c3ccccc3O)no2)cc(OC)c1OC
78 | > 30 | Fc1cc(Nc2nc(-c3ccncc3)nc3ccccc23)ccc1OC(F)(F)F
79 | > 30 | CC(=O)N1CCN(c2nc(-c3ccc(Br)cc3)cs2)CC1
80 | > 30 | COCCn1ccc2c(C3=CCOCC3)nc(-c3cccc(NC(C)=O)c3)cc21
81 | > 30 | O=C(O)c1ccc(N2C(=O)/C(=C/c3ccc(-c4ccc([N+](=O)[O-])cc4)o3)C=C2c2ccccc2)cc1
82 | 21.6 | COc1cc(F)ccc1-c1nc(-c2c(C)noc2C)cc2c1cc(C)n2C
83 | 8.24 | CCOC(=O)c1ccc(N2C(=O)c3n[nH]c(-c4ccco4)c3C2c2ccc(C)cc2)cc1 (stereo not given)
84 | 6.22 | COc1ccccc1Nc1cnc2ccc(-c3ccc(OC)c(OC)c3)nn12
85 | 9.9 | CNc1ncc(-c2cccc3ccccc23)o1
86 | > 30 | Cc1ccc(S(=O)(=O)Nc2cnccc2C(=O)Nc2nc(-c3ccc(F)cc3)cs2)cc1
87 | 5.8 | Cc1ccc(-c2cc(C(=O)Nc3ccc(S(=O)(=O)NCc4nccs4)cc3)c3ccccc3n2)cc1C
88 | 2.2 | Cc1nn(Cc2ccccc2Cl)c(C)c1CN(C)CC(O)COc1ccc(Cl)cc1 (stereo not given)
89 | 7.66 | NC(=O)C1CCN(c2nc(-c3ccc(OC(F)(F)F)cc3)cs2)CC1
90 | > 30 | CN(C)C(=O)c1nc(-c2ccc(Cl)nc2)c2ccccn12
91 | 19 | Cc1ccc(S(=O)(=O)Nc2cncc(C(=O)Nc3nc(-c4ccccc4)cs3)c2)cc1
92 | 6.2 | c1ccc2c(Nc3ccon3)nc(-c3ccncc3)nc2c1
93 | 7.3 | Cc1cc(Nc2nc(-c3ccncc3)nc3ccccc23)n[nH]1
94 | 5.13 | COC(=O)C1=C(C)NC(C)=C(C(=O)OCCCN2CCC(c3ccccc3)(c3ccccc3)CC2)C1c1cccc([N+](=O)[O-])c1 (stereo not given)
95 | > 30 | COC(=O)CNC(=O)c1nc(-c2ccc([S+](C)(=O)[O-])cc2)c2ccccn12
96 | > 30 | COc1ccc2cc1Oc1ccc(cc1)C[C@@H]1c3c(cc(OC)c4c3Oc3cc5c(cc3O4)CCN[C@H]5C2)CCN1C
97 | > 30 | NC(=O)Nc1cc(-c2ccc(CN3CCOCC3)cc2)sc1C(N)=O
98 | 9.84 | CC1=C(C(=O)Nc2ccc(Cl)cc2)C(c2ccccc2C)n2ncc(C(=O)Nc3ccc(C)cc3)c2N1 (stereo not given)
99 | 9 | COc1cc(NS(=O)(=O)c2ccc(C)cc2)c(C(=O)Nc2nc(-c3ccccc3)cs2)cc1OC
100 | 5.5 | Cc1sc(NC(=O)Cc2ccc3c(c2)OCO3)nc1-c1ccc2c(c1)CCN2C
